Measurements published in PubChem BioAssay (NCI).
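Cells were grown in 96-well plates and exposed to each compound for 48 hours at five concentrations; endpoints were interpolated linearly between bracketing concentrations, or set to the highest concentration if not reached. GI50: concentration for 50% inhibition of growth. TGI is the concentration that stops growth completely.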

How the values were obtained:
Assay in all cases: DTP human tumour cell line panel, 48 h
IGROV1 ovarian = tested on: IGROV1 ovarian
HOP-92 NSCLC = tested on: HOP-92 NSCLC
K-562 leukemia = tested on: K-562 leukemia
PC-3 prostate = tested on: PC-3 prostate
SF-539 CNS = tested on: SF-539 CNS
EKVX NSCLC = tested on: EKVX NSCLC
SF-268 CNS = tested on: SF-268 CNS
HS 578T breast = tested on: HS 578T breast

SMILES | GI50 (IGROV1 ovarian) [µM] | TGI (IGROV1 ovarian) [µM] | GI50 (HOP-92 NSCLC) [µM] | TGI (HOP-92 NSCLC) [µM] | GI50 (K-562 leukemia) [µM] | TGI (K-562 leukemia) [µM] | GI50 (PC-3 prostate) [µM] | TGI (PC-3 prostate) [µM] | GI50 (SF-539 CNS) [µM] | TGI (SF-539 CNS) [µM] | GI50 (EKVX NSCLC) [µM] | TGI (EKVX NSCLC) [µM] | GI50 (SF-268 CNS) [µM] | TGI (SF-268 CNS) [µM] | GI50 (HS 578T breast) [µM] | TGI (HS 578T breast) [µM]
COC12C=C/C(=C(/C(=O)OCCSc3ccnn3C)C(=O)CCCCCCCCC3(OC)C=C/C(=C(/C(=O)OCCSc4ccnn4C)C(=O)CCCCCCCC1)O3)O2 | 1.46 | > 32.5 | 0.847 | 2.55 | 1.05 | 18 | 1.51 | > 32.5 | 1.16 | 5.24 | 1.15 | 12.1 | 1.15 | > 32.5 | 1.23 | > 32.5
O=C(O)/C=C/c1ccc[c]([Sb](=[O])([OH])[OH])c1 | > 100 | > 100 | > 100 | > 100 | > 100 | > 100 | > 100 | > 100 |  |  | > 100 | > 100 | > 100 | > 100 | > 100 | > 100
c1ccc2cc(Cn3cc[n+](Cc4ccc5ccccc5c4)c3)ccc2c1 | 0.659 | 3.75 | 0.16 | 1.39 | 1.02 | 14.5 | 0.535 | 5.6 | 1.98 | 9.27 | 2.51 | 15.5 | 1.28 | 11.1 | 1.28 | 8.97
CC(=Nc1ccccc1)C1=C(O)C(Cc2cccc(F)c2)NC1=O (configuration not stated) | 0.0854 | > 100 | 0.0242 | > 21.1 | 0.0412 | > 100 | 0.0399 | > 100 | 0.0374 |  |  |  | 0.071 | > 100 | 0.0501 | > 100
COc1cc(OC)cc(-c2nc3sccn3c2/C=N/N=C(N)N)c1 | 11.6 | 26.2 |  |  | 9.7 | 19 | 9.23 | 16.2 | 8.26 | 15.7 | 8.2 | 15.9 | 10.2 | 27.2 | 12.6 | 25.3
O=c1cc(-c2ccccc2)oc2ccc(OC/C(=N/O)c3ccc(F)cc3)cc12 | 21.7 | > 50 | 11.4 | 41.5 | 2.61 | > 50 | 2.72 | 12.3 | 1.92 | 4.06 | 1.97 | 15.8 | 3.62 | 14.3 |  | 
C=C1C(=O)O[C@H]2[C@H]1CC/C(COC(=O)c1cn(C)c3ccccc13)=C\CC[C@@]1(C)O[C@@H]21 | 0.692 | 2.58 | 0.365 | 2 | 0.4 | 5.13 | 1.47 | 4.29 | 0.741 | 2.13 | 0.962 | 3.42 | 1.3 | 2.86 | 2.39 | 9.47
O=C1OCC(c2ccc(O)cc2)=C1c1cc(O)c(O)c(O)c1 | > 100 | > 100 | > 100 | > 100 | 82.2 | > 100 | > 100 | > 100 | > 100 | > 100 | > 100 | > 100 | > 100 | > 100 | > 100 | > 100
CCC[CH2][Sn]([CH2]CCC)([CH2]CCC)[O]C(=O)C(OC(C)=O)c1ccccc1 (configuration not stated) | 0.153 | 0.323 | 0.0409 | 0.222 | 0.109 | 0.349 |  |  | 0.165 | 0.306 | 0.0528 | 0.21 | 0.138 | 0.368 |  | 
CCN1C(=O)N(CC)C2C1NN=c1s/c(=C\c3cccs3)c(=O)n12 (configuration not stated) | 0.217 | > 100 | > 25.8 | > 100 | 0.0551 | > 100 | 0.12 | > 100 | 0.0949 | 0.812 |  | > 100 | 1.67 | > 100 | 0.112 | 
COc1cccc(Sc2ccc([N+](=O)[O-])c3no[n+]([O-])c23)c1 | 5.63 | 20.8 | 15.5 | 32.7 | 3.66 | 13 | 16.9 | > 54.5 | 14.7 | 28.1 | 14.8 | 39.5 | 12.5 | 30 | 16.2 | 61.7
O=C1CSC(c2ccc(-c3nc4ccccc4[nH]3)cc2)=N1 | 21.9 | > 50 | > 50 | > 50 | 5.64 | 17.5 | > 50 | > 50 | 12.2 | 42.1 | > 50 | > 50 | 22.4 | > 50 | 25.1 | > 50
O=C1Nc2ccccc2/C1=C\c1cccc(/C=C2/C(=O)Nc3ccccc32)n1 | 0.44 | 1.67 | 1.48 | 4.49 | 0.291 | > 37.9 | 0.654 | 3.31 | 0.966 | 2.23 | 0.692 | 8.74 | 0.362 | 1.39 | 0.294 | 1.31
CC(=O)NNc1nc(C)c(C(/C=C/c2ccc([N+](=O)[O-])cc2)=N/NC(N)=O)s1 |  | > 100 |  | > 100 |  | > 100 |  | > 100 |  | > 100 |  | > 100 |  | > 100 |  | > 100
CCOc1cc(C(=O)O)c2c(ccc3ccc(OC)c(OC)c32)c1OC |  | > 100 |  | > 100 |  | > 100 |  | > 100 |  |  |  | > 100 |  | > 100 |  | > 100
COc1ccc(C(C#N)=C2C=CC(=NO)C=C2)cc1 | 2.8 | 8 |  |  | 7.26 | > 100 | 3.74 | 17.1 | 3.79 | 13.8 | 17.6 | 32.7 | 3.81 | 14.2 | 2.9 | 20.3
